Data reported in the NIST ThermoML archive (doi:10.1016/j.jct.2013.09.035).

Experiment: wn = mass fraction of the nth substance listed
Details: Liquid, Vibrating tube method, w2 = 0.5

CCOC(F)(F)C(F)(C(F)(F)F)C(F)(F)F [nonafluoroisobutyl ethyl ether] + CCOC(F)(F)C(F)(F)C(F)(F)C(F)(F)F
Details	mass density [kg/m3]
283.47 K, 10000 kPa	1482.27
283.48 K, 100 kPa	1457.82
283.48 K, 1000 kPa	1460.24
283.48 K, 3000 kPa	1465.3
283.48 K, 5000 kPa	1470.22
283.48 K, 25000 kPa	1513.47
283.48 K, 30000 kPa	1522.25
283.49 K, 15000 kPa	1493.18
283.49 K, 20000 kPa	1503.4
283.49 K, 40000 kPa	1538.97
283.49 K, 50000 kPa	1553.61
283.49 K, 80000 kPa	1591.2
283.49 K, 90000 kPa	1602.13
283.49 K, 100000 kPa	1612.51
283.5 K, 60000 kPa	1567.59
283.5 K, 70000 kPa	1579.58
293.33 K, 40000 kPa	1520.74
293.33 K, 50000 kPa	1536.34
293.34 K, 100 kPa	1433.67
293.34 K, 3000 kPa	1442.2
293.34 K, 5000 kPa	1447.74
293.34 K, 10000 kPa	1460.66
293.34 K, 25000 kPa	1493.61
293.34 K, 80000 kPa	1575.81
293.35 K, 15000 kPa	1472.51
293.35 K, 20000 kPa	1483.44
293.35 K, 70010 kPa	1563.65
293.35 K, 100000 kPa	1597.56
293.36 K, 1000 kPa	1436.34
293.36 K, 30000 kPa	1503.18
293.36 K, 60000 kPa	1550.72
293.36 K, 90000 kPa	1586.86
303.23 K, 100 kPa	1410.99
303.23 K, 1000 kPa	1413.95
303.23 K, 3000 kPa	1420.34
303.23 K, 5000 kPa	1426.43
303.23 K, 10000 kPa	1440.51
303.23 K, 15000 kPa	1453.28
303.23 K, 30000 kPa	1485.94
303.23 K, 40000 kPa	1504.31
303.23 K, 70000 kPa	1549.38
303.23 K, 90000 kPa	1573.69
303.23 K, 100000 kPa	1584.73
303.24 K, 20000 kPa	1464.95
303.24 K, 25000 kPa	1475.81
303.24 K, 50000 kPa	1520.78
303.24 K, 60000 kPa	1535.65
303.24 K, 80000 kPa	1561.98
313.14 K, 40000 kPa	1487.04
313.15 K, 25000 kPa	1456.84
313.15 K, 50000 kPa	1504.3
313.15 K, 60000 kPa	1519.95
313.16 K, 15000 kPa	1432.86
313.16 K, 20000 kPa	1445.3
313.16 K, 30000 kPa	1467.53
313.17 K, 1000 kPa	1390.04
313.17 K, 5000 kPa	1403.68
313.17 K, 10000 kPa	1418.95
313.17 K, 100000 kPa	1571.77
313.18 K, 100 kPa	1386.8
313.18 K, 3000 kPa	1397.04
313.18 K, 90000 kPa	1559.98
313.19 K, 70000 kPa	1535.1
313.19 K, 80000 kPa	1547.94
323.03 K, 70000 kPa	1522.41
323.03 K, 79990 kPa	1535.93
323.03 K, 90000 kPa	1548.47
323.03 K, 100000 kPa	1560.39
323.04 K, 15000 kPa	1415.6
323.04 K, 20000 kPa	1429.06
323.04 K, 25000 kPa	1441.36
323.04 K, 30000 kPa	1452.73
323.04 K, 40000 kPa	1473.17
323.04 K, 50000 kPa	1491.32
323.04 K, 60000 kPa	1507.67
323.05 K, 100 kPa	1365.33
323.05 K, 1000 kPa	1368.99
323.05 K, 3000 kPa	1376.71
323.05 K, 5000 kPa	1384.07
323.05 K, 10000 kPa	1400.75
332.93 K, 80000 kPa	1522.17
332.93 K, 90000 kPa	1535.21
332.93 K, 100000 kPa	1547.28
332.94 K, 15000 kPa	1395.61
332.94 K, 20000 kPa	1409.99
332.94 K, 25000 kPa	1423.08
332.94 K, 30000 kPa	1435.1
332.94 K, 40000 kPa	1456.69
332.94 K, 50000 kPa	1475.63
332.94 K, 60000 kPa	1492.7
332.94 K, 70000 kPa	1508.09
332.95 K, 100 kPa	1340.66
332.95 K, 1000 kPa	1344.7
332.95 K, 3000 kPa	1353.32
332.95 K, 5000 kPa	1361.37
332.95 K, 10000 kPa	1379.59
342.83 K, 100 kPa	1316.31
342.83 K, 3000 kPa	1330.5
342.84 K, 1000 kPa	1320.87
342.84 K, 5000 kPa	1339.38
342.85 K, 10000 kPa	1359.29
342.85 K, 15000 kPa	1376.59
342.85 K, 20000 kPa	1391.96
342.86 K, 25000 kPa	1405.93
342.86 K, 30000 kPa	1418.67
342.86 K, 40000 kPa	1441.37
342.87 K, 60000 kPa	1479.04
342.87 K, 69990 kPa	1494.97
342.87 K, 80000 kPa	1509.52
342.88 K, 50000 kPa	1461.22
342.88 K, 90000 kPa	1522.96
342.88 K, 100000 kPa	1535.5
352.77 K, 3000 kPa	1307.3
352.78 K, 1000 kPa	1296.47
352.78 K, 5000 kPa	1317.18
352.78 K, 10000 kPa	1339.03
352.78 K, 15000 kPa	1357.74
352.78 K, 20000 kPa	1374.27
352.78 K, 25000 kPa	1389.09
352.78 K, 30000 kPa	1402.65
352.78 K, 40000 kPa	1426.56
352.78 K, 50000 kPa	1447.34
352.78 K, 60000 kPa	1465.76
352.79 K, 70000 kPa	1482.51
352.79 K, 80000 kPa	1497.6
352.79 K, 90000 kPa	1511.48
352.79 K, 100000 kPa	1524.4
362.72 K, 1000 kPa	1270.63
362.72 K, 3000 kPa	1282.75
362.73 K, 5000 kPa	1293.79
362.73 K, 10000 kPa	1317.75
362.73 K, 15000 kPa	1338.07
362.73 K, 20000 kPa	1355.77
362.73 K, 25000 kPa	1371.52
362.73 K, 30000 kPa	1385.83
362.73 K, 40000 kPa	1410.97
362.73 K, 50000 kPa	1432.73
362.73 K, 60000 kPa	1451.97
362.73 K, 70000 kPa	1469.11
362.73 K, 80000 kPa	1484.73
362.73 K, 90000 kPa	1499.1
362.73 K, 100000 kPa	1512.38
